The values below come from patent publication US20240116909A1, “NOVEL COMPOUNDS USEFUL AS STING AGONISTS AND USES THEREOF” (priority 2021, published 2024).

The target in this experiment is human STING WT (Homo sapiens (Human), UniProt Q86WV6). Briefly: Human STING WT binding assay (Cisbio HTRF). Particulars: human STING WT protein 6His-tagged, 3 hours at RT, read-out: hSTING WT binding IC50. How it is done:
Cisbio Bioassays' human STING WT binding assay (#64BDSTGPEG & 64BDSTGPEH, Cisbio) is for quantitative measurement of human STING WT ligand using HTRF® technology.
Negative control: Dispense 5 μL of diluent into each negative control well. Standard: Dispense 5 μL of each Human STING WT Standard 2′3′-cGAMP (Std 0-Std 7) into each standard well. Compound: Dispense 5 μL of compound into each compound well.
Negative control: Add 5 μL of detection buffer to all wells. Other wells: Add 5 μL of human STING WT protein 6His-tagged protein to all wells.
Add 10 μL of premixed STING WT ligand d2 reagent and 6His Tb antibody working solution to all wells.
Seal the plate and incubate 3 hours at RT or at Over Night if necessary.
Remove the plate sealer and read on an HTRF® compatible reader (PerkinElmer, USA). Results were analyzed with a two-wavelength signal ratio: intensity (665 nm)/intensity (620 nm).
Fit the data in GraphPad to obtain IC50 values using equation (2)
Y=Bottom+(Top−Bottom)/(1+10^((Log IC50−X)*Hill Slope)) Equation (2): […]
Y is HTRF Ratio and X is compound concentration.
A general note: TR-FRET usually uses a lanthanide donor and a delayed reading to cut background.

human STING WT, sequence (Q86WV6 whole entry): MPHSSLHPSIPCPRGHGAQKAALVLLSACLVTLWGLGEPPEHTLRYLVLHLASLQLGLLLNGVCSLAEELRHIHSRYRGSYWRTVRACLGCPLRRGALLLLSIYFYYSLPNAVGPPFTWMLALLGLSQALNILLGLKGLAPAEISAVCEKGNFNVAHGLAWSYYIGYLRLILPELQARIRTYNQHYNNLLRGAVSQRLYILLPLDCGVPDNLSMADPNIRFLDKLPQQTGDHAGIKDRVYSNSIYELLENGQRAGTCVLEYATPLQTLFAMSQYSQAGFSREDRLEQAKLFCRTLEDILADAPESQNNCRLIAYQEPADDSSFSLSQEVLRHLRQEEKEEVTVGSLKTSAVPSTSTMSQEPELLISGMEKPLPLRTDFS

By IC50 is commonly meant the point on the concentration scale where inhibition reaches its midpoint. With `COc1cc2sc(C(=O)[C@H]3C[C@@H]3C(=O)O)cc2cc1OCCCOc1c(OC)cc2c(c1F)CN(C(=O)CCC(=O)O)C2` (relative stereo) [Example 21, trans-2-(5-(3-((2-(3-carboxypropanoyl)-4-fluoro-6-methoxyisoindolin-5-yl)oxy)propoxy)-6-methoxybenzo[b]thiophene-2-carbonyl)cyclopropane-1-carboxylic Acid], the IC50 was 159 nM. Take `COc1cc2c(cc1OCCCOc1cc3cc(C(=O)CCC(=O)O)sc3cc1OC)CN(C(=O)CCC(=O)O)C2` [Example 1, 4-(5-(3-((2-(3-carboxypropanoyl)-6-methoxybenzo[b]thiophen-5-yl)oxy)propoxy)-6-methoxyisoindolin-2-yl)-4-oxobutanoic Acid]: the IC50 was 0.06 nM. To `COc1cc2c(c(Cl)c1OCCCOc1c(OC)cc3sc(C(=O)CCC(=O)O)cc3c1F)CN(C(=O)CCC(=O)O)C2` [Example 2, 4-(5-(3-((2-(3-carboxypropanoyl)-4-chloro-6-methoxyisoindolin-5-yl)oxy)propoxy)-4-fluoro-6-methoxybenzo[b]thiophen-2-yl)-4-oxobutanoic Acid] belongs 11.4 nM; to `COc1cc2c(c(F)c1OCCCOc1c(OC)cc3sc(C(=O)CCC(=O)O)cc3c1Cl)CN(C(=O)CCC(=O)O)C2` [Example 3, 4-(5-(3-((2-(3-carboxypropanoyl)-4-chloro-6-methoxybenzo[b]thiophen-5-yl)oxy)propoxy)-4-fluoro-6-methoxyisoindolin-2-yl)-4-oxobutanoic Acid], 8.4 nM.

For the molecule `COc1cc2c(c(F)c1OCCCOc1c(OC)cc3sc(C(=O)CCC(=O)O)cc3c1F)CN(C(=O)CCC(=O)O)C2` [Example 4, 4-(5-(3-((2-(3-carboxypropanoyl)-4-fluoro-6-methoxybenzo[b]thiophen-5-yl)oxy)propoxy)-4-fluoro-6-methoxyisoindolin-2-yl)-4-oxobutanoic Acid], the IC50 came out at 0.18 nM.

As to `COc1cc2c(cc1OCCCOc1cc3cc(C(=O)C[C@H](C)C(=O)O)sc3cc1OC)CN(C(=O)C[C@H](C)C(=O)O)C2` [Example 5, Sodium (S)-4-(5-(3-((2-((S)-3-carboxylatobutanoyl)-6-methoxybenzo[b]thiophen-5-yl)oxy)propoxy)-6-methoxyisoindolin-2-yl)-2-methyl-4-oxobutanoate], the IC50 came to 0.32 nM. To `COc1cc2c(cc1OCCCOc1c(OC)cc3sc(C(=O)C[C@H](C)C(=O)O)cc3c1F)CN(C(=O)C[C@H](C)C(=O)O)C2` [Example 6, Sodium (S)-4-(5-(3-((2-((S)-3-carboxylatobutanoyl)-4-fluoro-6-methoxybenzo[b]thiophen-5-yl)oxy)propoxy)-6-methoxyisoindolin-2-yl)-2-methyl-4-oxobutanoate] belongs 0.36 nM; to `COc1cc2c(cc1OCCCOc1nc3cc(C(=O)CCC(=O)O)sc3cc1OC)CN(C(=O)CCC(=O)O)C2` [Example 8, Sodium 4-(5-(3-((2-(3-carboxylatopropanoyl)-6-methoxyisoindolin-5-yl)oxy)propoxy)-6-methoxythieno[3,2-b]pyridin-2-yl)-4-oxobutanoate], 0.65 nM; to `COc1cc2c(cc1OCCCOc1cc3cc(C(=O)CCC(=O)O)sc3cc1Br)CN(C(=O)CCC(=O)O)C2` [Example 9, 4-(5-(3-((6-bromo-2-(3-carboxypropanoyl)benzo[b]thiophen-5-yl)oxy)propoxy)-6-methoxyisoindolin-2-yl)-4-oxobutanoic Acid], 2.23 nM.

With `COc1cc2sc(C(=O)CCC(=O)O)cc2cc1OCCCOc1c(OC)cc2c(c1F)CN(C(=O)CCC(=O)O)C2` [Example 10, 4-(5-(3-((2-(3-carboxypropanoyl)-4-fluoro-6-methoxyisoindolin-5-yl)oxy)propoxy)-6-methoxybenzo[b]thiophen-2-yl)-4-oxobutanoic Acid], the IC50 amounted to 0.28 nM. For the molecule `COc1cc2c(nc1OCCCOc1nc3cc(C(=O)CCC(=O)O)sc3cc1OC)CN(C(=O)CCC(=O)O)C2` [Example 11, 4-(5-(3-((6-(3-carboxypropanoyl)-3-methoxy-6,7-dihydro-5H-pyrrolo[3,4-b]pyridin-2-yl)oxy)propoxy)-6-methoxythieno[3,2-b]pyridin-2-yl)-4-oxobutanoic Acid], the IC50 worked out at 2.54 nM.

Turning to `COc1cc2sc(C(=O)CCC(=O)O)cc2cc1OCCCOc1c(OC)cc2c(c1Cl)CN(C(=O)CCC(=O)O)C2` [Example 14, 4-(5-(3-((2-(3-carboxypropanoyl)-4-chloro-6-methoxyisoindolin-5-yl)oxy)propoxy)-6-methoxybenzo[b]thiophen-2-yl)-4-oxobutanoic Acid], the IC50 stood at 46.6 nM. To `COc1cc2c(cc1OCCCOc1cc3sc(C(=O)CCC(=O)O)cc3nc1OC)CN(C(=O)CCC(=O)O)C2` [Example 15, 4-(5-(3-((2-(3-carboxypropanoyl)-5-methoxythieno[3,2-b]pyridin-6-yl)oxy)propoxy)-6-methoxyisoindolin-2-yl)-4-oxobutanoic Acid] belongs 92.6 nM.

For `C=C(COc1c(OC)cc2c(c1Cl)CN(C(=O)CCC(=O)O)C2)COc1c(OC)cc2sc(C(=O)CCC(=O)O)cc2c1F` [Example 16, 4-(5-((2-(((2-(3-carboxypropanoyl)-4-chloro-6-methoxyisoindolin-5-yl)oxy)methyl)allyl)oxy)-4-fluoro-6-methoxybenzo[b]thiophen-2-yl)-4-oxobutanoic Acid], the IC50 is above 150 nM. Regarding `COc1cc2c(c(F)c1OCCCOc1c(OC)cc3sc(C(=O)C[C@H](C)C(=O)O)cc3c1F)CN(C(=O)C[C@H](C)C(=O)O)C2` [Example 17, (S)-4-(5-(3-((2-((S)-3-carboxybutanoyl)-4-fluoro-6-methoxybenzo[b]thiophen-5-yl)oxy)propoxy)-4-fluoro-6-methoxyisoindolin-2-yl)-2-methyl-4-oxobutanoic Acid], the IC50 is 0.19 nM. Next, `COc1cc2c(cc1OCCCOc1cc3cc(C(=O)NCCC(=O)O)sc3cc1OC)CN(C(=O)CCC(=O)O)C2` [Example 18, 4-(5-(3-((2-((2-carboxyethyl)carbamoyl)-6-methoxybenzo[b]thiophen-5-yl)oxy)propoxy)-6-methoxyisoindolin-2-yl)-4-oxobutanoic Acid]: 4.59 nM. To `C=C(COc1cc2c(cc1OC)CN(C(=O)CCC(=O)O)C2)COc1cc2cc(C(=O)CCC(=O)O)sc2cc1OC` [Example 19, 4-(5-((2-(((2-(3-carboxypropanoyl)-6-methoxybenzo[b]thiophen-5-yl)oxy)methyl)allyl)oxy)-6-methoxyisoindolin-2-yl)-4-oxobutanoic Acid] belongs 54.6 nM; to `COc1cc2c(cc1OCCCOc1c(OC)cc3sc(C(=O)CCC(=O)O)cc3c1F)CN(C(=O)CCC(=O)O)C2` [Example 20, 4-(5-(3-((2-(3-carboxypropanoyl)-4-fluoro-6-methoxybenzo[b]thiophen-5-yl)oxy)propoxy)-6-methoxyisoindolin-2-yl)-4-oxobutanoic Acid], 0.19 nM.
